Source: patent publication US20220220135A1 (BAR-ILAN UNIVERSITY, priority 2019, published 2022)
Several values for one entry are separate records, joined by “and”; a condition that tells them apart may be missing. Equal entries are not always repeated.

Tests used:
[1] = biological target: T1, NTPDase1 (Homo sapiens, UniProt P49961); assay: Stability to hydrolysis by human NTPDase1; type: in vitro ADME; details: analogue 100 μM; activity with 100 μM ATP = 100%
T1 sequence (P49961 1-510): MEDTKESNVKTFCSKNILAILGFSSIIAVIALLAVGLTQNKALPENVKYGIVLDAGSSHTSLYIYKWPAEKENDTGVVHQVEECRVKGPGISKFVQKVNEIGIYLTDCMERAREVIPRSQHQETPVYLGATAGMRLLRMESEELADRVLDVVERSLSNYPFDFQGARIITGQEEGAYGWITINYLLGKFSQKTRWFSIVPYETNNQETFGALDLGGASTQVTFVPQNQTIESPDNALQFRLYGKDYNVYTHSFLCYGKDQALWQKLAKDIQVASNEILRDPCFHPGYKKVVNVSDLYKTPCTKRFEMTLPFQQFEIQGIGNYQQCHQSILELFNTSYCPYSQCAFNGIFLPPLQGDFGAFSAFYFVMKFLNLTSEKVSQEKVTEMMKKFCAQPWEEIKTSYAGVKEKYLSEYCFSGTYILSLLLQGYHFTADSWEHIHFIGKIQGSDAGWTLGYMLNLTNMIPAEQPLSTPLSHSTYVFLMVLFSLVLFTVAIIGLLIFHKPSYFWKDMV
Description: (§1) Uridine 5′-Pα,α-phosphorodithioate analogues, 9-12, were tested for their stability to degradation by NPP1 and NTPDases. These enzymes are involved in the metabolism of extracellular nucleotides. Analogues 9-12 were not hydrolyzed by hNPP1 (Table 2). […] Analogue 10 was hydrolyzed by hNTPDase1, -2 and -3 at 30-39% the rate of ATP and was slightly hydrolyzed by human NTPDase8 at 16% the rate of ATP.
(§2) Analogues 9-12 were incubated in the presence of the indicated ectonucleotidase at a concentration of 100 μM. The activity with 100 μM ATP was set as 100%, which was 329±108, 302±34, 263±51, 195±76 nmol of Pi·min−1·mg of protein−1 for NTPDase1, -2, -3 and -8, respectively, and 34±7 nmol for NPP1. Data presented are the mean±SEM of results from two experiments.

[2] = biological target: T2, NTPDase8 (Homo sapiens, UniProt Q5MY95); assay: Stability to hydrolysis by human NTPDase8; type: in vitro ADME; details: analogue 100 μM; activity with 100 μM ATP = 100%
T2 sequence (Q5MY95 1-495): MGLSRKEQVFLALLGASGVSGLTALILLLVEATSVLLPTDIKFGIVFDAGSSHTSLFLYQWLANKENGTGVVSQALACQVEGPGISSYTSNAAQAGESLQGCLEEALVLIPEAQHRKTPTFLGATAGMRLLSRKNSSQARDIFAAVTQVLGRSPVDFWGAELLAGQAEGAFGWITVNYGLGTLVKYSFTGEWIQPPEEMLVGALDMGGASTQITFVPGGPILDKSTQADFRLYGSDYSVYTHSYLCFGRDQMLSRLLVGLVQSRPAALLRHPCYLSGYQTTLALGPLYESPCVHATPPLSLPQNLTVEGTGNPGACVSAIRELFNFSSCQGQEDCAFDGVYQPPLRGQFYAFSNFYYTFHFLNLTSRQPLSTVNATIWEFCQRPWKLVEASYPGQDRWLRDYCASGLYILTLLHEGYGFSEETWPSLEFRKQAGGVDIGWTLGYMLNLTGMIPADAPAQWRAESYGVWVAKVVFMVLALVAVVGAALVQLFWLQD
Description: as §1, §2

[3] = biological target: T3, NPP1 (Homo sapiens, UniProt P22413); assay: Inhibition of human NPP1, 100 μM ATP as substrate (FIG. 9, Table 6); type: biochemical; details: ATP (100 μM) as a substrate
T3 sequence (P22413 1-925): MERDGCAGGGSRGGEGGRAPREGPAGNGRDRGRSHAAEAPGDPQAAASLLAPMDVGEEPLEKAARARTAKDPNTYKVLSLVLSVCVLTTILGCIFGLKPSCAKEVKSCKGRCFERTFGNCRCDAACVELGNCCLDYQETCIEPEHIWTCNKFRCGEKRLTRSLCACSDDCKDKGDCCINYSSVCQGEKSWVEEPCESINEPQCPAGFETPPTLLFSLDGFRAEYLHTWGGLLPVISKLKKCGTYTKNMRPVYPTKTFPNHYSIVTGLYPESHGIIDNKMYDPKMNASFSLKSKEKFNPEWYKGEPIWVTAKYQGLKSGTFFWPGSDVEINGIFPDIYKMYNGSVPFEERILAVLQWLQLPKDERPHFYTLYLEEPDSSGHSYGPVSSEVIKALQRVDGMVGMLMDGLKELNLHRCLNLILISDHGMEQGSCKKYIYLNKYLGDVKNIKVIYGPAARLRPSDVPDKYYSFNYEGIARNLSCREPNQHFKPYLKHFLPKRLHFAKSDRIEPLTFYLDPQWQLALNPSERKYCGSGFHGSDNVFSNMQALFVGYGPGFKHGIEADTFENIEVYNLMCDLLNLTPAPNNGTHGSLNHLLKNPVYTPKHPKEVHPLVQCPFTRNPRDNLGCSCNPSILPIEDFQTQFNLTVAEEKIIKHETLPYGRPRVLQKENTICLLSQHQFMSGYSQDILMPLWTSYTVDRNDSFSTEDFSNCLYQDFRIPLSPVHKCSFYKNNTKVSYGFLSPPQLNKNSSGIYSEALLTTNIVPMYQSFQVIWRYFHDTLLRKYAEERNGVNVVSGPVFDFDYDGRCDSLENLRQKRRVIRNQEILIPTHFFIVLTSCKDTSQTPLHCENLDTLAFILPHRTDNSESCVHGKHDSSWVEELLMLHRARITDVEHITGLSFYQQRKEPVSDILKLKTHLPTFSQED
Description: Each experiment was performed in triplicates;

[4] = biological target: T4, human P2Y1R (Homo sapiens, UniProt P47900); assay: Calcium mobilization in 1321N1 astrocytoma cells expressing human P2Y1R; type: cell-based
T4 construct: expressed in transfected cells; host or cells: 1321N1 astrocytoma cells
Description: (§3) Given the structural resemblance of 106-109 to the natural ligands of P2Y receptors, adenine and uracil nucleotides as natural substrates, were assessed for agonist potency on the human P2Y1, P2Y2, P2Y4, and P2Y6 receptor. To evaluate NPP1 selectivity of analogs 106-109, they were tested for their ability to activate of the uridine-nucleotide sensitive human recombinant P2Y1,2,4,6-receptors. The agonist potencies of this series of nucleotide analogues on the Gq protein-coupled human P2Y1R, P2Y2R, P2Y4R, and P2Y6R was determined by assessing its ability to induce calcium mobilization in stably transfected 1321N1 astrocytoma cells (Table 8). The nucleotide analogues were found in calcium mobilization assays to activate the P2Y2R with mid-micromolar potency.

[5] = biological target: T5, human CD39 (Homo sapiens, UniProt P49961); assay: Inhibition of human CD39, 0.5 μM PSB-170621A as substrate; type: biochemical; details: 0.5 μM PSB-170621A as a substrate; n = 3
T5 sequence (P49961 1-510): T1 sequence (P49961 1-510)

[6] = biological target: T6, human P2Y4R (Homo sapiens, UniProt P51582); assay: Calcium mobilization in 1321N1 astrocytoma cells expressing human P2Y4R; type: cell-based
T6 construct: expressed in transfected cells; host or cells: 1321N1 astrocytoma cells
Description: as §3

T4 sequence (P47900 whole entry): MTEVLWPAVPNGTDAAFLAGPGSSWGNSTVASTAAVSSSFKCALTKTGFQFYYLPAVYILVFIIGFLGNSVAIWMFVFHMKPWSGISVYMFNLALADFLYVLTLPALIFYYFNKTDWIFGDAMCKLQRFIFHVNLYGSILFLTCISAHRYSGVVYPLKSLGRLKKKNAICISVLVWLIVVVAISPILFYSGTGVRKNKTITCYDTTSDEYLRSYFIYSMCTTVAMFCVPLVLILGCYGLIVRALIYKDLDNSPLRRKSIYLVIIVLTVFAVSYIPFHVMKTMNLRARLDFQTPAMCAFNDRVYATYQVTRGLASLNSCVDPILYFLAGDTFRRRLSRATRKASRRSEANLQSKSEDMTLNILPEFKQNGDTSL
T6 sequence (P51582 whole entry): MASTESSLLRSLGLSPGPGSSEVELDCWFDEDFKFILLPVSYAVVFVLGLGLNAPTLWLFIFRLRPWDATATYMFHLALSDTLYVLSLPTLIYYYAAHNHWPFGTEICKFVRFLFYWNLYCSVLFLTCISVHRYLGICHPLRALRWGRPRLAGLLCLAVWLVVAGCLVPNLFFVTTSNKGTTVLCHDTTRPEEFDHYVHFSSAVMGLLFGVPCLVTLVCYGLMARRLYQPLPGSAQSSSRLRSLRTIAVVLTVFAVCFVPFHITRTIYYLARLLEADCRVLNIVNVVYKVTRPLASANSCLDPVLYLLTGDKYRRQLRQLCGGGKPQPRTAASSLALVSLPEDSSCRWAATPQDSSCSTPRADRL

Row | SMILES | Relative activity (%) ± SEM of ATP hydrolysis, NTPDase1 [1] [%] | Relative activity (%) ± SEM of ATP hydrolysis, NTPDase8 [2] | inhibition at 10 µM ([3]; 10 μM, n = 3, read-out: % inhibition ± SEM at 10 μM, human NPP1) [%] | Ki ([3]; read-out: Ki (μM ± SD), human NPP1 (converted)) [µM] | % activation at 10 μM, P2Y1 [4] [%] | % inhibition ± SEM, human CD39 [5] [%] | % activation at 10 μM, P2Y4 [6] [%]
1 | O=c1ccn([C@@H]2O[C@H](COP(=S)(S)OP(=O)(O)OP(=O)(O)O)[C@@H](O)[C@H]2O)c(=O)[nH]1 (stereo partly shown) [Analogue 10] | 30.8 ± 3.2 | 16% and 16.5 ± 2.8% | – | – | – | – | –
2 | Nc1ncnc2c1ncn2COCCOP(=S)(S)OP(=O)(O)O (stereo not shown) [compound 106] | – | – | 68 ± 1 | 0.305 | 2 ± 2 | 14 ± 1 | 0 ± 0
